Laboratory results: ChEMBL document CHEMBL3045001, “Synthesis and evaluation of analgesic, anti-inflammatory, and anticancer activities of new pyrazole-3(5)-carboxylic acid derivatives” (Med Chem Res, 2013)

How the values were obtained:
Mus musculus [1] = assay: Anti-inflammatory activity in carrageenan-induced Mus musculus Swiss albino (mouse) paw edema model assessed as paw swelling at 100 mg/kg, sc administered 30 min prior to carrageenan injection measured after 180 min (reference value: 51.0 +/-3.0 x10'-2 mm); type: functional; conditions: route subcutaneous
Mus musculus [2] = assay: Anti-inflammatory activity in carrageenan-induced Mus musculus Swiss albino (mouse) paw edema model assessed as paw swelling at 100 mg/kg, sc administered 30 min prior to carrageenan injection measured after 90 min (reference value: 38.0 +/-2.0 x10'-2 mm); type: functional; conditions: route subcutaneous
Mus musculus [3] = assay: Anti-inflammatory activity in carrageenan-induced Mus musculus Swiss albino (mouse) paw edema model assessed as inhibition of paw edema at 100 mg/kg, sc administered 30 min prior to carrageenan injection measured after 270 min; type: functional; conditions: route subcutaneous
Mus musculus [4] = assay: Anti-inflammatory activity in carrageenan-induced Mus musculus Swiss albino (mouse) paw edema model assessed as inhibition of paw edema at 100 mg/kg, sc administered 30 min prior to carrageenan injection measured after 90 min; type: functional; conditions: route subcutaneous
Mus musculus [5] = assay: Anti-inflammatory activity in carrageenan-induced Mus musculus Swiss albino (mouse) paw edema model assessed as inhibition of paw edema at 100 mg/kg, sc administered 30 min prior to carrageenan injection measured after 360 min; type: functional; conditions: route subcutaneous
Mus musculus [6] = assay: Analgesic activity in Mus musculus Swiss albino (mouse) assessed as inhibition of p-benzoquinone-induced abdominal writhing at 100 mg/kg, sc administered 30 min prior to PBQ injection measured after 5 min for 15 min; type: functional, Abdomen; parameters: scale not given: the % may be the effect or the level left; conditions: route subcutaneous
Mus musculus [7] = assay: Anti-inflammatory activity in carrageenan-induced Mus musculus Swiss albino (mouse) paw edema model assessed as inhibition of paw edema at 100 mg/kg, sc administered 30 min prior to carrageenan injection measured after 180 min; type: functional; conditions: route subcutaneous
Mus musculus [8] = species: Mus musculus; assay: Acute toxicity against Mus musculus Swiss albino (mouse) assessed as morbidity after 48 hr; type: organism-based; conditions: in vivo
Mus musculus [9] = assay: Anti-inflammatory activity in carrageenan-induced Mus musculus Swiss albino (mouse) paw edema model assessed as paw swelling at 100 mg/kg, sc administered 30 min prior to carrageenan injection measured after 360 min (reference value: 77.0 +/-3.0 x10'-2 mm); type: functional; conditions: route subcutaneous
Mus musculus [10] = species: Mus musculus; assay: Acute toxicity against Mus musculus Swiss albino (mouse) assessed as mortality after 48 hr; type: organism-based; conditions: in vivo
Mus musculus [11] = assay: Anti-inflammatory activity in carrageenan-induced Mus musculus Swiss albino (mouse) paw edema model assessed as paw swelling at 100 mg/kg, sc administered 30 min prior to carrageenan injection measured after 270 min (rvb = 75.0 +/-3.0 x10'-2 mm); type: functional; conditions: route subcutaneous
HL-60 [12] = assay: Anticancer activity against Homo sapiens (human) HL60 cells assessed as cell viability at 50 uM after 24 hr by MTT assay (reference value: 100 +/-3.55%); type: functional; conditions: HL-60, 24 h, read-out: Activity
HeLa [13] = assay: Anticancer activity against Homo sapiens (human) HeLa cells assessed as cell viability at 50 uM after 24 hr by MTT assay (reference value: 100 +/-4.13%); type: functional; conditions: read-out: Activity
Raji [14] = assay: Anticancer activity against Homo sapiens (human) Raji cells assessed as cell viability at 50 uM after 48 hr by MTT assay (reference value: 100 +/-4.26%); type: functional; conditions: read-out: Activity
HL-60 [15] = assay: Anticancer activity against Homo sapiens (human) HL60 cells assessed as cell viability at 50 uM after 48 hr by MTT assay (reference value: 100 +/-8.41%); type: functional; conditions: HL-60, 48 h, read-out: Activity
HeLa [16] = assay: Anticancer activity against Homo sapiens (human) HeLa cells assessed as cell viability at 50 uM after 48 hr by MTT assay (reference value: 100 +/-3.8%); type: functional; conditions: read-out: Activity
MDA-MB-231 [17] = assay: Anticancer activity against Homo sapiens (human) estrogen-independent MDA-MB-231 cells assessed as cell viability at 50 uM after 24 hr by MTT assay (reference value: 100 +/-7.08%); type: functional; conditions: MDA-MB-231, 24 h, read-out: Activity
MCF7 [18] = assay: Anticancer activity against Homo sapiens (human) MCF7 cells assessed as cell viability at 50 uM after 48 hr by MTT assay (100 +/-5.08%); type: functional; conditions: MCF7, 48 h, read-out: Activity
MDA-MB-231 [19] = assay: Anticancer activity against Homo sapiens (human) estrogen-independent MDA-MB-231 cells assessed as cell viability at 50 uM after 48 hr by MTT assay (reference value: 100 +/-3.71%); type: functional; conditions: MDA-MB-231, 48 h, read-out: Activity
MCF7 [20] = assay: Anticancer activity against Homo sapiens (human) MCF7 cells assessed as cell viability at 50 uM after 24 hr by MTT assay (reference value: 100 +/-2.74%); type: functional; conditions: MCF7, 24 h, read-out: Activity
Raji [21] = assay: Anticancer activity against Homo sapiens (human) Raji cells assessed as cell viability at 50 uM after 24 hr by MTT assay (reference value: 100 +/-5.02%); type: functional; conditions: read-out: Activity
HeLa [22] = assay: Anticancer activity against Homo sapiens (human) HeLa cells assessed as inhibition of cell viability by MTT assay; type: functional, cell-based
HL-60 [23] = assay: Anticancer activity against Homo sapiens (human) HL60 cells assessed as inhibition of cell viability by MTT assay; type: functional, cell-based

| Structure (SMILES) | Activity (Mus musculus [1]) | Activity (Mus musculus [2]) | inhibition in vivo at 100 mg/kg (Mus musculus [3]) | inhibition in vivo at 100 mg/kg (Mus musculus [4]) | inhibition in vivo at 100 mg/kg (Mus musculus [5]) | Activity (Mus musculus [6]) | inhibition in vivo at 100 mg/kg (Mus musculus [7]) | Activity (Mus musculus [8]) | Activity (Mus musculus [9]) | Activity (Mus musculus [10]) | Activity (Mus musculus [11]) | viability at 50 µM (HL-60 [12]) | viability at 50 µM (HeLa [13]) | viability at 50 µM (Raji [14]) | viability at 50 µM (HL-60 [15]) | viability at 50 µM (HeLa [16]) | viability at 50 µM (MDA-MB-231 [17]) | viability at 50 µM (MCF7 [18]) | viability at 50 µM (MDA-MB-231 [19]) | viability at 50 µM (MCF7 [20]) | also measured |
| --- | --- | --- | --- | --- | --- | --- | --- | --- | --- | --- | --- | --- | --- | --- | --- | --- | --- | --- | --- | --- | --- |
| COc1ccc(CN2CCN(C(=O)c3cc(-c4ccc(C)cc4)nn3Cc3ccccc3)CC2)c(OC)c1OC | 28 ×10⁻² mm | 31 ×10⁻² mm | 74.4% | 17.8% | 53.3% | 53% | 44.7% | Non-toxic | 36 ×10⁻² mm | Non-toxic | 19 ×10⁻² mm | – | – | – | – | – | – | – | – | – | – |
| Cc1ccc(-c2cc(C(=O)NCc3cccnc3)n(Cc3ccccc3)n2)cc1 | 43 ×10⁻² mm | 36 ×10⁻² mm | 24.4% | 3.7% | 25.3% | – | 16.5% | Non-toxic | 57 ×10⁻² mm | Non-toxic | 57 ×10⁻² mm | 31.7% | 74.9% | 93.4% | 41.9% | 82.6% | 65.1% | 100% | 43.1% | 105% | viability at 50 µM (Raji [21]): 86.4% |
| Cc1ccc(-c2cc(C(=O)NNc3ccc4ccccc4n3)n(Cc3ccccc3)n2)cc1 | 39 ×10⁻² mm | 29 ×10⁻² mm | 44.4% | 23% | 42.8% | 48.9% | 24.1% | Non-toxic | 44 ×10⁻² mm | Non-toxic | 42 ×10⁻² mm | – | – | – | – | – | – | – | – | – | – |
| Cc1ccc(-c2cc(C(=O)Oc3ccc(C(C)(C)C)cc3)n(Cc3ccccc3)n2)cc1 | 33 ×10⁻² mm | 40 ×10⁻² mm | 50% | – | 62% | 10.9% | 35% | Non-toxic | 29 ×10⁻² mm | Non-toxic | 38 ×10⁻² mm | 120% | 83.2% | 103% | 112% | 81.4% | 119% | 94.9% | 62.9% | 93.2% | viability at 50 µM (Raji [21]): 94.9% |
| Cc1ccc(-c2cc(C(=O)Oc3ccc(-n4ccnc4)cc3)n(Cc3ccccc3)n2)cc1 | 43 ×10⁻² mm | 35 ×10⁻² mm | 19.2% | 6.6% | 18.8% | 14.9% | 15.4% | Non-toxic | 62 ×10⁻² mm | Non-toxic | 61.6 ×10⁻² mm | 108% | 36.7% | 106% | 121% | 33.9% | 33.1% | 52.4% | 24.4% | 67.6% | IC50 (HeLa [22]): 30.4 µM; viability at 50 µM (Raji [21]): 96.5% |
| Cc1ccc(-c2cc(C(=O)N3CCN(Cc4ccc(C(C)C)cc4)CC3)nn2Cc2ccccc2)cc1 | 28 ×10⁻² mm | 34 ×10⁻² mm | 58.9% | 8.9% | 63.4% | 59.2% | 46.3% | Non-toxic | 28 ×10⁻² mm | Non-toxic | 31 ×10⁻² mm | 11.9% | 52.5% | 29.6% | 15.5% | 34.5% | 67.2% | 56.7% | 41.1% | 51.4% | IC50 (HeLa [22]): 30.5 µM; IC50 (HL-60 [23]): 24.4 µM; viability at 50 µM (Raji [21]): 44.4% |
| Cc1ccc(-c2cc(C(=O)Oc3ccc(C(C)(C)C)cc3)nn2Cc2ccccc2)cc1 | 37 ×10⁻² mm | 28 ×10⁻² mm | 54% | 26% | 58.7% | 73.4% | 28.5% | Non-toxic | 32 ×10⁻² mm | Non-toxic | 34 ×10⁻² mm | 134% | 118% | 95.3% | 69.7% | 62.1% | 93.7% | 92.4% | 70.5% | 90.9% | viability at 50 µM (Raji [21]): 111% |
| Cc1ccc(-c2cc(C(=O)Oc3ccc(C(C)C)cc3)nn2Cc2ccccc2)cc1 | 42 ×10⁻² mm | 27 ×10⁻² mm | 50.4% | 27.4% | 47.8% | 45.7% | 18.7% | Non-toxic | 40 ×10⁻² mm | Non-toxic | 37 ×10⁻² mm | 120% | 79.6% | 97% | 83.6% | 54.6% | 106% | 82.6% | 66.2% | 79.6% | viability at 50 µM (Raji [21]): 90.1% |
| CCOC(=O)C1CCN(C(=O)c2cc(-c3ccc(C)cc3)nn2Cc2ccccc2)CC1 | 34 ×10⁻² mm | 28 ×10⁻² mm | 54.4% | 26.7% | 57.6% | 77% | 33.3% | Non-toxic | 33 ×10⁻² mm | Non-toxic | 34 ×10⁻² mm | 102% | 53.5% | 97.3% | 91.7% | 49.9% | 96.5% | 88.2% | 64% | 54.2% | viability at 50 µM (Raji [21]): 77% |
